Experimental data: US20040209897A1 (Pharmacia Corporation, priority 2002, published 2004)
Counter-ions that a name gives are not always drawn.

Key:
[1] = tested on: streptococcal cell wall (SCW)-induced arthritis; assay: Chronic streptococcal cell wall (SCW)-induced arthritis in Lewis rats, paw volume; assay type: in vivo; details: female Lewis rats, daily dosing from day 10, paw volume measured 11 days after start of administration, A at 200, 60, 20 mpk/day, B at 240, 120, 60 mpk/day, FIG. 3
From the text: The use of Lewis rats with chronic streptococcal cell wall (SCW)-induced arthritis as models for testing potentially therapeutic compounds has been described by Richards, P. J., et al., Rhermatology (Oxford), 40(9):978-987 (2001), and Melay, L. M. et al, Bioorg. Med. Chem., 9(2):537-554 (2001), among others. In the present test, female Lewis rats were divided into eight groups. One group served as the “normal” control and received no arthritis inducement. Chronic streptococcal cell wall (SCW)-induced arthritis was induced in the remaining seven groups. One of the severn groups in which arthritis was induced served as a “vehicle” control and received dosage only of vehicle at the same intervals as those rats receiving the test compounds. Three additional groups of rats received the vehicle plus 2-{2-[(E)-2-phenylethenyl]pyridin-4-yl}-1,5,6,7-tetrahydro-4H-pyrrolo[3,2-c]pyridin-4-one (Compound “A”) in daily dosages. All rats were started on the test at day 0. […]
To measure the effectiveness of the compounds for the treatment of SCW-induced arthritis, rat paw volume was measured at eleven (11) days from the initiation of administration of the test compounds. […]

[2] = tested on: SCW-induced arthritis; assay: Streptococcus cell wall (SCW)-induced arthritis, paw volume / paw swelling; assay type: in vivo; details: rats, FIG. 4, A at 20, 60, 200 mpk/day, B at 60, 120, 240 mpk/day
[3] = target: Recombinant MAPKAPK2 (MK-2) (Homo sapiens, UniProt P49137); assay: Determination of MK-2 IC50 (HSP-peptide phosphorylation, anion exchange resin capture assay); assay type: biochemical
Recombinant MAPKAPK2 (MK-2), sequence (P49137 whole entry, species assumed): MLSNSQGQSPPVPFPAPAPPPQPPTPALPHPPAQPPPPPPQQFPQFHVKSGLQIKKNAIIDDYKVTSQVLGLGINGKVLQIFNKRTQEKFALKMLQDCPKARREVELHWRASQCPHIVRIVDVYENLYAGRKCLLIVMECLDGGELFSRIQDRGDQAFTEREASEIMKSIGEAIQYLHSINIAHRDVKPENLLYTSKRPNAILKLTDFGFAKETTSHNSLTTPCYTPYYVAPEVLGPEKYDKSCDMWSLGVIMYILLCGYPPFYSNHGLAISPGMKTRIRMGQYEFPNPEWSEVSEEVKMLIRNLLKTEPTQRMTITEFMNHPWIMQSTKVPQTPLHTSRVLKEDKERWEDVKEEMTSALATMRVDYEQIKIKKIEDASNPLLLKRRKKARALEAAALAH
Experimental: The phosphorylation of HSP-peptide ([sequence]) by MAPKAPK2 was measured using an anion exchange resin capture assay method. […] The reaction was terminated and [γ^33P]ATP was removed from solution by the addition of 150 μl of AG 1×8 ion exchange resin in 900 mM sodium formate pH 3.0. A 50 μl aliquot of head volume was removed from the quenched reaction mixture and added to a 96-well plate, 150 μl of Microscint-40 (Packard) was added and the amount of phosphorylated-peptide was determined.
Compounds are evaluated as potential inhibitors of the MK2 kinase by measuring their effects on MK2 phosphorylation of the peptide substrate. Compounds may be screened initially at two concentrations prior to determination of IC50 values. Screening results are expressed as percent inhibition at the concentrations of compound tested. For IC50 value determinations, compounds are tested at six concentrations in ten-fold serial dilutions with each concentration tested in triplicate. Results are expressed as IC50 values in micromolar. The assay is performed at a final concentration of 2% DMSO.

SMILES | IC50 ([3]; MAPKAP2 Avg. IC50) [nM] | also measured
O=C(O)C(F)(F)F.O=C1NCCc2[nH]c(-c3ccnc(-c4ccccc4F)c3)cc21 [B, 2-[2-(2-fluorophenyl)pyridin-4-yl]-1,5,6,7-tetrahydro-4H-pyrrolo[3,2-c]pyridin-4-one trifluoroacetate] |  | average paw volume (increase versus vehicle controls) [1]: significantly lower increases in paw volume; percent inhibition in paw swelling as a function of the dosage rate [2]: typical dose-response behavior
O=C(/C=C/c1ccccc1)Nc1cc(-c2cc3c([nH]2)CCNC3=O)ccn1 [Example 334, trifluoroacetate] | 64.3 | 
C=C(C)C(=O)Nc1cccc(-c2cc(-c3cc4c([nH]3)CCNC4=O)ccn2)c1 [Example 287, trifluoroacetate] | 52.5 | 
CC(=NO)c1ccc(-c2cc(-c3cc4c([nH]3)CCNC4=O)ccn2)cc1 [Example 349, trifluoroacetate] | 66.7 | 
COc1ccc2cc(-c3cc(-c4cc5c([nH]4)CCNC5=O)ccn3)ccc2c1 [Example 273, trifluoroacetate] | 49.7 | 
O=C1NCCc2[nH]c(-c3ccnc(-c4cccc(CNCc5cccc(Cl)c5)c4)c3)cc21 [Example 408, bis(trifluoroacetate)] | 89.9 | 
O=C1NCCc2[nH]c(-c3ccnc(/C=C/c4c(Cl)cccc4N4CCOCC4)c3)cc21 [Example 715, trifluoroacetate] | 1800 | 
O=C1NCCc2[nH]c(-c3ccnc(/C=C/c4cc(F)ccc4F)c3)cc21 [Example 196, trifluoroacetate] | 33.6 | 
NCc1cccc(-c2cc(-c3cc4c([nH]3)CCNC4=O)ccn2)c1 [Example 551, 2-{2-[3-(aminomethyl)phenyl]pyridin-4-yl}-1,5,6,7-tetrahydro-4H-pyrrolo[3,2-c]pyridin-4-one trifluoroacetate] | 207 | 
CN(C)C(=O)CCCOc1ccc(-c2cc(-c3cc4c([nH]3)CCNC4=O)ccn2)cc1 [Example 326, trifluoroacetate] | 62.2 | 
O=C1NCCc2[nH]c(-c3ccnc(/C=C/c4ccccc4N4CCCCC4)c3)cc21 [Example 671, trifluoroacetate] | 820 | 
O=C1NCCc2[nH]c(-c3ccnc(/C=C/c4cccc(CCN5CCOCC5)c4)c3)cc21 [Example 192, trifluoroacetate] | 32.4 | 
CC(=O)c1ccc(-c2cc(-c3cc4c([nH]3)CCNC4=O)ccn2)cc1 [Example 280, trifluoroacetate] | 51.2 | 
C=CC(=O)NCc1cccc(-c2cc(-c3cc4c([nH]3)CCNC4=O)ccn2)c1 [Example 351, hydrochloride] | 69.2 | 
O=C1NCCc2[nH]c(-c3ccnc(-c4ccc(N5CCOCC5)nc4)c3)cc21 [Example 63, trifluoroacetate] | 16.4 | 
Nc1ccc(-c2cc(-c3cc4c([nH]3)CCNC4=O)ccn2)cn1 [Example 90, trifluoroacetate] | 19.9 | 
CN(C)C/C=C/C(=O)NCc1cccc(-c2cc(-c3cc4c([nH]3)CCNC4=O)ccn2)c1 [Example 465] | 118 | 
O=C1NCC(c2ccccc2)c2[nH]c(-c3ccnc(-c4cnc5ccccc5c4)c3)cc21 (stereo not drawn) [Example 768, 7-phenyl-2-(2-quinolin-3-ylpyridin-4-yl)-1,5,6,7-tetrahydro-4H-pyrrolo[3,2-c]pyridin-4-one trifluoroacetate] | 7980 | 
COC(=O)Nc1ccc(-c2cc(-c3cc4c([nH]3)CCNC4=O)ccn2)cc1 [Example 203, trifluoroacetate] | 35.1 | 
O=C1NCCc2[nH]c(-c3ccnc(/C=C/c4ccc(-c5ccccc5)cc4)c3)cc21 [Example 639, trifluoroacetate] | 562 | 
Cc1cccc(/C=C/c2cc(-c3cc4c([nH]3)CCNC4=O)ccn2)c1C [Example 577, trifluoroacetate] | 279 | 
O=C1NCCc2cc(-c3cc(-c4cc5c([nH]4)CCNC5=O)ccn3)ccc21 [Example 161, trifluoroacetate] | 28.6 | 
O=C1NCCc2[nH]c(-c3ccnc(/C=C\Cc4ccccc4)c3)cc21 [Example 749, trifluoroacetate] | 3750 | 
O=C1NCCc2[nH]c(-c3ccnc(-c4ccc([N+](=O)[O-])cc4)c3)cc21 [Example 587] | 316 | 
O=C1NCCc2[nH]c(-c3cc(-c4ccc(Oc5ccccc5)cc4)ncc3F)cc21 [Example 509, 2-[5-fluoro-2-(4-phenoxyphenyl)pyridin-4-yl]-1,5,6,7-tetrahydro-4H-pyrrolo[3,2-c]pyridin-4-one trifluoroacetate] | 149 | 

SMILES | IC50 ([3]; MAPKAP2 Avg. IC50) [nM] | also measured
N#Cc1ccc(-c2cc(-c3cc4c([nH]3)CCNC4=O)ccn2)cc1 [Example 327, trifluoroacetate] | 62.3 | 
CON=C(C)c1ccc(-c2cc(-c3cc4c([nH]3)CCNC4=O)ccn2)cc1 [Example 415] | 92.3 | 
O=C(O)/C=C\C(=O)NCc1cccc(-c2cc(-c3cc4c([nH]3)CCNC4=O)ccn2)c1 [Example 369, trifluoroacetate] | 76 | 
O=C1NCCc2[nH]c(-c3cc(F)nc(-c4ccccc4F)c3)cc21 [Example 802, 2-[2-fluoro-6-(2-fluorophenyl)pyridin-4-yl]-1,5,6,7-tetrahydro-4H-pyrrolo[3,2-c]pyridin-4-one trifluoroacetate] |  | IC50 ([3]; MAPKAP2 Avg. IC50, MK-2 inhibiting activity, Table I): 20000 nM
O=C1NCCc2[nH]c(-c3ccnc(-c4ccc(OCC(O)CN5CCC[C@@H]5CN5CCCC5)cc4)c3)cc21 (stereo partly drawn) [Example 508, 2-[2-(4-{2-hydroxy-3-[(2R)-2-(pyrrolidin-1-ylmethyl)pyrrolidin-1-yl]propoxy}phenyl)pyridin-4-yl]-1,5,6,7-tetrahydro-4H-pyrrolo[3,2-c]pyridin-4-one trifluoroacetate] | 149 | 
COCCN(C)c1ccccc1/C=C/c1cc(-c2cc3c([nH]2)CCNC3=O)ccn1 [Example 716, trifluoroacetate] | 1810 | 
CCc1cccc(-c2cc(-c3cc4c([nH]3)CCNC4=O)ccn2)c1 [Example 272, trifluoroacetate] | 49.3 | 
CC(C)c1cccc(-c2cc(-c3cc4c([nH]3)CCNC4=O)ccn2)c1 [Example 119, trifluoroacetate] | 23.7 | 
O=C1NCCc2[nH]c(-c3ccnc(/C=C/c4ccccc4C4CCCCC4)c3)cc21 [Example 694, trifluoroacetate] | 1150 | 
O=C1NCCc2[nH]c(-c3ccnc(/C=C/c4cc5ccccc5o4)c3)cc21 [Example 494] | 134 | 
Cn1c(-c2ccnc(-c3cnc4ccccc4c3)c2)cc2c1CCNC2=O [Example 750, 1-methyl-2-(2-quinolin-3-ylpyridin-4-yl)-1,5,6,7-tetrahydro-4H-pyrrolo[3,2-c]pyridin-4-one] | 4130 | 
N/N=C(\c1ccccc1)c1cc(-c2cc3c([nH]2)CCNC3=O)ccn1 [Example 786, 2-{2-[(E)-hydrazono(phenyl)methyl]pyridin-4-yl}-1,5,6,7-tetrahydro-4H-pyrrolo[3,2-c]pyridin-4-one trifluoroacetate] | 14300 | 
O=C1NCCc2[nH]c(-c3ccnc(-c4ccc5c(c4)OC=CO5)c3)cc21 [Example 62, trifluoroacetate] | 16.4 | 
CC(C)Cc1cncc(-c2cc(-c3cc4c([nH]3)CCNC4=O)ccn2)c1 [Example 243, trifluoroacetate] | 41.8 | 
N#Cc1cccc(-c2cc(-c3cc4c([nH]3)CCNC4=O)ccn2)c1 [Example 160, trifluoroacetate] | 28.5 | 
O=C(NCc1ccccc1)c1cc(-c2cc3c([nH]2)CCNC3=O)ccn1 [Example 787, trifluoroacetate] | 14400 | 
O=C1NCCc2[nH]c(-c3ccnc(/C=C/c4c[nH]c5ccccc45)c3)cc21 [Example 276, trifluoroacetate] | 50.1 | 
O=C1NC(c2ccccc2)Cc2[nH]c(-c3ccnc(-c4cccc(F)c4)c3)cc21 (stereo not drawn) [Example 767, 2-[2-(3-fluorophenyl)pyridin-4-yl]-6-phenyl-1,5,6,7-tetrahydro-4H-pyrrolo[3,2-c]pyridin-4-one trifluoroacetate] | 7750 | 
CCN(CC)c1ccccc1/C=C/c1cc(-c2cc3c([nH]2)CCNC3=O)ccn1 [Example 762, trifluoroacetate] | 5770 | 
O=C1NC(C2CC2)Cc2[nH]c(-c3ccnc(-c4cccc(NC(=O)C5CCCC5)c4)c3)cc21 (stereo not drawn) [Example 634, trifluoroacetate] | 509 | 
Nc1cccc(-c2cc(-c3cc4c([nH]3)CCNC4=O)ccn2)c1 [Example 431, trifluoroacetate] | 99.3 | 
O=C1NCCc2[nH]c(-c3ccnc(/C=C/Cc4ccccc4)c3)cc21 [Example 713, trifluoroacetate] | 1760 | 
C/C(=C\c1cc(-c2cc3c([nH]2)CCNC3=O)ccn1)c1ccccc1 [Example 582, trifluoroacetate] | 297 | 
NCCCc1ccc(-c2cc(-c3cc4c([nH]3)CCNC4=O)ccn2)cn1 [Example 485] | 132 | 
COc1ccc(/C=C/c2cc(-c3cc4c([nH]3)CCNC4=O)ccn2)cc1 [Example 170, trifluoroacetate] | 29.6 | 
